Data published in PubChem BioAssay (NCI).
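1) Cells in 96-well plates. 2) Compound, 48 h, 5 concentrations. 3) Linear interpolation between surrounding doses. 4) Unreached endpoint = highest concentration. TGI denotes the concentration required for complete inhibition of growth.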

Legend:
Test in all cases: growth of human tumour cells (NCI), 48 h
T-47D breast = tested on: T-47D breast
SK-MEL-2 melanoma = tested on: SK-MEL-2 melanoma
OVCAR-3 ovarian = tested on: OVCAR-3 ovarian
IGROV1 ovarian = tested on: IGROV1 ovarian
BT-549 breast = tested on: BT-549 breast
LOX IMVI melanoma = tested on: LOX IMVI melanoma
OVCAR-5 ovarian = tested on: OVCAR-5 ovarian
NCI-H226 lung = tested on: NCI-H226 lung
RPMI-8226 leukemia = tested on: RPMI-8226 leukemia
HT29 colon = tested on: HT29 colon
ACHN renal = tested on: ACHN renal
SF-268 CNS = tested on: SF-268 CNS

| Compound | TGI (T-47D breast) [µM] | TGI (SK-MEL-2 melanoma) [µM] | TGI (OVCAR-3 ovarian) [µM] | TGI (IGROV1 ovarian) [µM] | TGI (BT-549 breast) [µM] | TGI (LOX IMVI melanoma) [µM] | TGI (OVCAR-5 ovarian) [µM] | TGI (NCI-H226 lung) [µM] | TGI (RPMI-8226 leukemia) [µM] | TGI (HT29 colon) [µM] | TGI (ACHN renal) [µM] | TGI (SF-268 CNS) [µM] |
| --- | --- | --- | --- | --- | --- | --- | --- | --- | --- | --- | --- | --- |
| c1sc(NC2=NCCO2)c2c1CCCC2 | > 100 | > 100 | > 100 | > 100 | > 100 | > 100 | > 100 | > 100 | > 100 | > 100 | > 100 |  |
| O=C(Cc1nc2ccc(C(=O)c3ccccc3)cc2[nH]c1=O)C(=O)Nc1ccc(Br)cc1 | > 100 | > 100 | > 100 | > 100 | > 100 | > 100 | > 100 | > 100 | > 100 | > 100 | > 100 | > 100 |
| COC(=O)C1=C(C(=O)OC)C2OC1C1C2C2(C)C(C)=C(C)C1(C)S2=O (stereo unspecified) | 22.2 | 28 | 25.5 | 39.3 | 25.1 | > 100 | 38.8 | 22.9 | 31 | > 49.9 | 12.9 | 28.9 |
| COc1ccc(Nc2c(C#N)c3n(c4ccccc24)c2ccccc2[n+]3C)cc1OC | > 36.9 | 14.9 | 11 | 17.8 | 42.6 | 7.23 | 10.4 | 10.4 | > 25.1 | 23 | 7.86 | 8.25 |
| Cc1cc2c(c(C(=O)NCCC(=O)O)c1)Oc1c(cc(C)cc1C(=O)NCCC(=O)O)S2 | > 100 | > 100 | > 100 | > 100 | > 100 | > 100 | > 100 | > 100 | > 100 | > 100 | > 100 | > 100 |
| Oc1ccccc1C(c1cc2c(cc1O)OCO2)N1CCOCC1 (stereo unspecified) | 33.8 | 36 | 31.6 | 35.7 | 30.9 | 43.4 | 57.8 | > 100 | 41.7 | 35.2 | 31.5 | 36.9 |
| CCOC(=O)c1cc2c([N+](=O)[O-])c(NC(C)=O)ccc2s1 | 61.2 | > 100 | > 100 | > 100 | > 100 | > 100 | > 100 | 54.8 | > 100 | > 100 | > 100 | > 100 |
| CC(=O)OCC1OC(N2C(=O)/C(=C\c3ccc(Cl)cc3)C(N)=Nc3ccccc32)C(OC(C)=O)C(OC(C)=O)C1OC(C)=O (stereo unspecified) | 39.1 | 74.6 | 32.6 | 63.4 | > 100 | 39.2 | > 100 |  | 13.8 | 70.2 | 45.7 | 42 |
| Cc1ccc2c(c1)nc(N)n[n+]2[O-] | > 100 | > 100 | > 100 | > 100 | > 100 | > 100 | > 100 | > 100 | > 100 | > 100 | > 100 | > 100 |
| CCOC(=O)c1cc(=C2\CCN(CC(C)CC)C2=S)/c(=C(/O)CC)[nH]1 (stereo unspecified) | 30.9 | 44.4 |  | 37.1 | 35.4 | 41.2 |  | 45.3 | 25.4 | 48 | 28.9 | 46.3 |
| Cc1ccc(N=Nc2c3c(c(O)c4ccccc24)CCC(C)(C)O3)cc1 | 60.3 | 36.7 | 62.4 | > 100 | 58.7 | 28.6 | 34.8 | > 100 | > 100 | 35.7 | 62.1 | > 100 |
| COc1ncc(C=C(C#N)C#N)c(OC)n1 | > 100 | > 100 | > 100 | > 100 | > 100 | > 100 | > 100 | > 100 | 86 | > 100 | > 100 | > 100 |
| CCOC(=O)c1sc2nc(SC)nc3c2c1N=CN3c1ccc(Br)cc1 | > 100 | > 100 | > 100 | > 100 | > 100 | > 100 | > 100 | > 100 | > 100 | > 100 | > 100 |  |
| O=c1oc2ccccc2c(O)c1C(c1cc(OCc2ccccc2)cc(OCc2ccccc2)c1)c1c(O)c2ccccc2oc1=O | 38.1 | 27.3 | 35 | 51.2 | 20.9 | 77.5 | 34.5 | > 45.3 | 6.08 | 33.5 | 7.99 | 33.3 |
| C/C(=N\NC(=S)NC(C)C)c1nc2ncccc2[nH]1 | > 95.1 | > 77.6 | > 100 | > 80.1 | 58.9 | > 100 | > 100 | 51.3 | > 100 | > 100 | > 100 | > 100 |
| O=C(O)c1ccc(NC(c2ccccc2)c2ccc3cccnc3c2O)cc1 (stereo unspecified) | 50.1 | > 100 | 14.2 | > 95.8 | > 74 | > 57.6 | > 100 | > 31 | 28 | > 100 | > 100 | > 100 |
| Clc1nc(Cl)nc(NC23CC4CC(CC(C4)C2)C3)n1 | 42.6 | > 41.8 | 37.7 | 28.3 | 35.6 | 26.9 | 39.5 | 44.2 | 38.4 | 37.9 | > 57.7 | 38.2 |
| Cc1cccc(N2C(=O)C3ON(C(C(N)=O)c4ccccc4)C(c4c5ccccc5c(Cl)c5ccccc45)C3C2=O)c1C (stereo unspecified) | 32.1 | 20 | 17.5 | 32.4 | 22.6 | 16.5 | 20.7 | 14.9 |  | 14.9 | 19.7 | 27.3 |
| Cc1cc(-c2nc3ccccc3s2)ccc1NS(=O)(=O)O | > 100 |  | > 100 | > 100 | > 100 | > 51.2 | > 100 | > 100 | > 10.5 | > 100 | > 100 | > 100 |
